We go through 13 compounds from patent publication US11306079B2, “3-(5-amino-pyrazin-2-yl)-benzenesulfonamide derivatives and related compounds as PI3K-gamma kinase inhibitors” (Incyte Corporation, priority 2017, dated 2022).

For assay [1], the system named is Phosphorylated Ribosomal Protein S6 (RPS6) in THP-1 cells. The assay can be described thus: THP-1 RPS6 ELISA Assay. It is filed as cell-based. To be noted: Homo sapiens; serum starved THP-1 cells, 2 hours with compound, 10 nM MCP-1 for 15 minutes, Phospho-RPS6 ELISA; read-out: PI3Kγ_THP1_RPS6_ELISA IC50. Here is the method:
Example A. THP-1 RPS6 ELISA Assay
To measure the Phosphorylated Ribosomal Protein S6 (RPS6) in cell lysates, THP-1 cells (Human Acute Monocytic Leukemia) are purchased from ATCC (Manassas, Va.) and maintained in RPMI with 10% FBS (Gibco/Life Technologies, Carlsbad, Calif.). For the assay, THP-1 cells are serum starved overnight in RPMI, then plated in RPMI (2×10^5 cells/well in 90 μL) into 96-well flat-bottom tissue culture treated plates (Corning, Corning, N.Y.), in the presence or absence of a concentration range of test compounds. Covered plates are incubated for 2 hours at 37° C., 5% CO2 then treated with or without 10 nM MCP-1 (MYBioSource, San Diego, Calif.) for 15 minutes at 37° C., 5% CO2. Plates are centrifuged at 1600 RPM and supernatants are removed. Cells are lysed in Lysis Buffer (Cell Signaling, Danvers, Mass.) with Protease Inhibitor (Calbiochem/EMD, Germany), PMSF (Sigma, St Louis Mo.), HALTS (Thermo Fisher, Rockford, Ill.) for 30 min on wet ice. Cell lysates are frozen at −80° C. before testing. The lysates are tested in the Human/Mouse/Rat Phospho-RPS6 ELISA (R&D Systems, Inc. Minn, Minn.). The plate is measured using a microplate reader (SpectraMax M5—Molecular Devices, LLC Sunnyvale, Calif.) set to 450 nm with a wavelength correction of 540. IC50 determination is performed by fitting the curve of inhibitor percent inhibition versus the log of the inhibitor concentration using the GraphPad Prism 5.0 software.

The target in assay [2] is PI3Kγ (p110γ) Recombinant Human Protein (Homo sapiens (Human), UniProt P48736). The assay can be described thus: PI3K-γ Scintillation Proximity Assay. In kind it is biochemical. To be noted: 20 μM PIP2, 2 μM ATP, 13 nM PI3Kγ, 120 min, room temperature. An excerpt:
Example B. PI3K-γ Scintillation Proximity Assay
[γ-^33P]ATP (10 mCi/mL) and Wheat Germ Agglutinin (WGA) YSi SPA Scintillation Beads was purchased from Perkin-Elmer (Waltham, Mass.). Lipid kinase substrate, D-myo-Phosphatidylinositol 4,5-bisphosphate (PtdIns(4,5)P2)D (+)-sn-1,2-di-O-octanoylglyceryl, 3-O-phospho linked (PIP2), CAS 204858-53-7, was purchased from Echelon Biosciences (Salt Lake City, Utah). PI3Kγ (p110γ) Recombinant Human Protein was purchased from Life technology (Grand island, NY), ATP, MgCl2, DTT, EDTA, MOPS and CHAPS were purchased from Sigma-Aldrich (St. Louis, Mo.).
(§1) The kinase reaction was conducted in polystyrene 384-well Greiner Bio-one white plate from Thermo Fisher Scientific in a final volume of 25 μL. Inhibitors were first diluted serially in DMSO and added to the plate wells before the addition of other reaction components. The final concentration of DMSO in the assay was 2%. The PI3Kγ assay was carried out at room temperature in 20 mM MOPS, pH 6.7, 10 mM MgCl2, 5 mM DTT and CHAPS 0.03%. Reactions were initiated by the addition of ATP, the final reaction mixture consisted of 20 μM PIP2, 2 μM ATP, 0.5 μCi [γ-^33P] ATP, 13 nM PI3Kγ. Reactions were incubated for 120 min and terminated by the addition of 40 μL SPA beads suspended in quench buffer: 163 mM potassium phosphate pH 7.8, 20% glycerol, 25 mM EDTA. The final concentration of SPA beads is 1.0 mg/mL. After the plate sealing, plates were shaken overnight at room temperature and centrifuged at 1500 rpm for 10 min, the radioactivity of the product was determined by scintillation counting on Topcount (Perkin-Elmer). IC50 determination was performed by fitting the curve of percent of the solvent control activity versus the log of the inhibitor concentration using the GraphPad Prism 6.0 software.

The target in assay [3] is PI3Kδ (p110δ/p85α) Recombinant Human Protein (Homo sapiens (Human), UniProt O00329). The assay can be described thus: PI3Kδ Scintillation Proximity Assay. In kind it is biochemical. To be noted: 20 μM PIP2, 2 μM ATP, 3.4 nM PI3Kδ, 120 min, room temperature.
Chain of PI3Kδ (p110δ/p85α) Recombinant Human Protein (O00329 whole entry): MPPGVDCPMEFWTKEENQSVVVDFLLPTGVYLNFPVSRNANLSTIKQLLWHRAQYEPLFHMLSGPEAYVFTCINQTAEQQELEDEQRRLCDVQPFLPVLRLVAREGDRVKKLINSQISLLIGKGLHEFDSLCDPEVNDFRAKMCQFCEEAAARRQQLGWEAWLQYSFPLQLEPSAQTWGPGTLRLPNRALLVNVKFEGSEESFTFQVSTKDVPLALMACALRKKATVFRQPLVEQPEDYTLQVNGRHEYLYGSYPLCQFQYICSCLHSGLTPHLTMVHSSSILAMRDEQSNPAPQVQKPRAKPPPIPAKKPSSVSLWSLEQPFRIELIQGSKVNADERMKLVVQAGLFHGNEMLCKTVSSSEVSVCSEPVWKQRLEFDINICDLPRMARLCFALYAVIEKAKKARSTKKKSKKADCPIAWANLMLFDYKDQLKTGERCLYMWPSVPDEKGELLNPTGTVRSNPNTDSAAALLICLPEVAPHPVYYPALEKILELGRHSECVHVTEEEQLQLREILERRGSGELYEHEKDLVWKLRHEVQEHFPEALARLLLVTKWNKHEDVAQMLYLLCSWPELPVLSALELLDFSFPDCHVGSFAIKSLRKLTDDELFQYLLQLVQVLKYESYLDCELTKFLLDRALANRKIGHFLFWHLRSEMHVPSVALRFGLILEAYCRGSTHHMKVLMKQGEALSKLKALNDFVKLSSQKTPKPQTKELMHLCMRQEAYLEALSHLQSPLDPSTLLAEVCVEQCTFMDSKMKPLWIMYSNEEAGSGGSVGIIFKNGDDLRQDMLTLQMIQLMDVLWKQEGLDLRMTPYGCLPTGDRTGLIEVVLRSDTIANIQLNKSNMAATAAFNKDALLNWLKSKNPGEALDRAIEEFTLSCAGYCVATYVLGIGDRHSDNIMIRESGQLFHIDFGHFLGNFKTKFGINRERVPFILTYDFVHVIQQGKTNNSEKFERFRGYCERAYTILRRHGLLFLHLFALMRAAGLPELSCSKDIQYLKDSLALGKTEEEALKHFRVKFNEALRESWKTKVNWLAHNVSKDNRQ
Chain of PI3Kδ (p110δ/p85α) Recombinant Human Protein (P27986 whole entry partner): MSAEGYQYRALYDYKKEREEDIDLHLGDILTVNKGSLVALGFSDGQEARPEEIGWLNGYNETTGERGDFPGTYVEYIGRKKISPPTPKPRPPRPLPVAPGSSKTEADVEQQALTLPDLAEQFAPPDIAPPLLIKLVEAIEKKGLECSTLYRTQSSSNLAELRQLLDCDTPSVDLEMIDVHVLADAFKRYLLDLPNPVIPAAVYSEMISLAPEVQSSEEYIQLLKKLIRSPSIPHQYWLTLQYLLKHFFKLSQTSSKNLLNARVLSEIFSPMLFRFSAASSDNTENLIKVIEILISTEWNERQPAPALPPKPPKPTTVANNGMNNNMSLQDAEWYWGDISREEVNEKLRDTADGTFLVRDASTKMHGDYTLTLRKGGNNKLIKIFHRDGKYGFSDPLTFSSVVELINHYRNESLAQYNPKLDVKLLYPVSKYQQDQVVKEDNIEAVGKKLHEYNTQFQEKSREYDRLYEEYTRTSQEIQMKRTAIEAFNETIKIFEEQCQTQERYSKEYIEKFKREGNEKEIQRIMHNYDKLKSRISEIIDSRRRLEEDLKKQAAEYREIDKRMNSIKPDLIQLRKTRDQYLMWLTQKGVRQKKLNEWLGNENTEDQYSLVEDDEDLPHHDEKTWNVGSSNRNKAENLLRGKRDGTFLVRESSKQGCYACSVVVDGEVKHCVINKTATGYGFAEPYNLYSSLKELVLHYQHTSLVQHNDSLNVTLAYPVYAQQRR
From the text: Example C. PI3Kδ Scintillation Proximity Assay
[γ-^33P]ATP (10 mCi/mL) and Wheat Germ Agglutinin (WGA) YSi SPA Scintillation Beads was purchased from Perkin-Elmer (Waltham, Mass.). Lipid kinase substrate, D-myo-Phosphatidylinositol 4,5-bisphosphate (PtdIns(4,5)P2)D (+)-sn-1,2-di-O-octanoylglyceryl, 3-O-phospho linked (PIP2), CAS 204858-53-7, was purchased from Echelon Biosciences (Salt Lake City, Utah). PI3Kδ (p110δ/p85α) Recombinant Human Protein was purchased from Eurofins (St Charles, Mo.). ATP, MgCl2, DTT, EDTA, MOPS and CHAPS were purchased from Sigma-Aldrich (St. Louis, Mo.).
as §1, with “PI3Kδ” for “PI3Kγ”, “3.4” for “13”, “PI3Kδ.” for “PI3Kγ.”

SMILES strings stand for the structures. Structures can show the parent of a compound that is named as a salt.

Chain of PI3Kγ (p110γ) Recombinant Human Protein (P48736 whole entry): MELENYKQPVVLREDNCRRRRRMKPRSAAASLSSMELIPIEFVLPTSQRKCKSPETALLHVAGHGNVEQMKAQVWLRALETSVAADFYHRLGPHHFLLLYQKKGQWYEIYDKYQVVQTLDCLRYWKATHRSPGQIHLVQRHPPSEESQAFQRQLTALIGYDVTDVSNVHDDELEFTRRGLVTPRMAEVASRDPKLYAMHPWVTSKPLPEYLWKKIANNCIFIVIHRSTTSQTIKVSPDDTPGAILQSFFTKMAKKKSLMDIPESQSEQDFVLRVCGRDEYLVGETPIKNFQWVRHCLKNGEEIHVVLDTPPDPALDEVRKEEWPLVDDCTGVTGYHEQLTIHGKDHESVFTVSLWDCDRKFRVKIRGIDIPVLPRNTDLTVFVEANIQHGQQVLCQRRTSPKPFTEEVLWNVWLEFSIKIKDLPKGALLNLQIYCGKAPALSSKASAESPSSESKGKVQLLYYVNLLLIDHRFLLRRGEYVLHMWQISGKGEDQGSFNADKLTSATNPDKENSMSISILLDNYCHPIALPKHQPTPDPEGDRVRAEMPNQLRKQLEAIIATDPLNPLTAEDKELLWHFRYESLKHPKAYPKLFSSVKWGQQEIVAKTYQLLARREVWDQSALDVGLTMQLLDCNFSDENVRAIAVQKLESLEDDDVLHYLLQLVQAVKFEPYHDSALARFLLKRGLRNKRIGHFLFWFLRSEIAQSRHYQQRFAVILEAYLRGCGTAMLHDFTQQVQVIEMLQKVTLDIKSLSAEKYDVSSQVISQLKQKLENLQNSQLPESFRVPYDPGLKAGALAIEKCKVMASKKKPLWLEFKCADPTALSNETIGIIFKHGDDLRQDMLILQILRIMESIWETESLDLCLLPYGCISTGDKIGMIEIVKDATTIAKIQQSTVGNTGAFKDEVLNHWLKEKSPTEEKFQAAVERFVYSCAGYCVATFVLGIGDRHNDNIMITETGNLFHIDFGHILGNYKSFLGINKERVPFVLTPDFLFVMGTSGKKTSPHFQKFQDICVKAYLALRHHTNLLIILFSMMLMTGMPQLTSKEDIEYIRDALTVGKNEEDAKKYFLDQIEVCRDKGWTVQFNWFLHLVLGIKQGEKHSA

For `O=C(O)C(F)(F)F.[2H]C([2H])([2H])c1ccc(S(=O)(=O)NC23CNC(C2)C3)cc1-c1cnc(N)c(-c2cnco2)n1` [Example 56, 3-(5-Amino-6-(oxazol-5-yl)pyrazin-2-yl)-N-(2-azabicyclo[2.1.1]hexan-4-yl)-4-(methyl-d3)benzenesulfonamide trifluoroacetate salt], the IC50 is not above 1000 nM in assay [1], not above 100 nM in assay [2] and not above 500 nM in assay [3].

Regarding `[2H]C([2H])([2H])c1ccc(S(=O)(=O)NC23CC(C#N)(C2)C3)cc1-c1cnc(N)c(-n2cncn2)n1` [Example 48, 3-(5-Amino-6-(1H-1,2,4-triazol-1-yl)pyrazin-2-yl)-N-(3-cyanobicyclo[1.1.1]pentan-1-yl)-4-(methyl-d3)benzenesulfonamide Trifluoroacetate Salt], the values for the concentration for half-maximal inhibition (IC50) in assay [1], in assay [2] and in assay [3] were not above 100 nM, not above 100 nM and not above 500 nM, respectively.

Regarding `[2H]C([2H])([2H])c1ccc(S(=O)(=O)NC23CCN(CC2)C3)cc1-c1cnc(N)c(-c2ccncn2)n1` [Example 95, 3-(5-amino-6-(pyrimidin-4-yl)pyrazin-2-yl)-N-(1-azabicyclo[2.2.1]heptan-4-yl)-4-(methyl-d3)benzenesulfonamide], the IC50 in assay [1], in assay [2] and in assay [3] was not above 100 nM throughout.

For `Cc1ccc(S(=O)(=O)NC23COC(C)(C2)C3)cc1-c1cnc(N)c(-c2cn(C)nc2C)n1` [Example 12, 3-(5-Amino-6-(1,3-dimethyl-1H-pyrazol-4-yl)pyrazin-2-yl)-4-methyl-N-(1-methyl-2-oxabicyclo[2.1.1]hexan-4-yl)benzenesulfonamide trifluoroacetate salt], the results for the 50% inhibitory concentration (IC50) in assay [1], in assay [2] and in assay [3] were not above 500 nM, not above 100 nM and not above 500 nM, respectively.

Turning to `CC(=O)NC12CC(NS(=O)(=O)c3ccc(C)c(-c4cnc(N)c(-n5cncn5)n4)c3)(C1)C2` [Example 40, N-(3-(3-(5-Amino-6-(1H-1,2,4-triazol-1-yl)pyrazin-2-yl)-4-methylphenylsulfonamido)bicyclo[1.1.1]pentan-1-yl)acetamide Trifluoroacetate Salt], the IC50 was not above 1000 nM in assay [1], not above 100 nM in assay [2] and not above 500 nM in assay [3].

Turning to `Cc1ccc(S(=O)(=O)NC23CC(C(C)(C)O)(C2)C3)cc1-c1cnc(N)c(-n2cncn2)n1` [Example 29, 3-(5-Amino-6-(1H-1,2,4-triazol-1-yl)pyrazin-2-yl)-N-(3-(2-hydroxypropan-2-yl)bicyclo[1.1.1]pentan-1-yl)-4-methylbenzenesulfonamide trifluoroacetate salt], the values for the IC50 in assay [1], in assay [2] and in assay [3] were not above 500 nM, not above 100 nM and not above 500 nM, respectively.

Turning to `[2H]C([2H])([2H])c1ccc(S(=O)(=O)NC23CC(CO)(C2)C3)cc1-c1cnc(N)c(-c2ccnc(SC)n2)n1` [Example 78, 3-(5-Amino-6-(2-(methylthio)pyrimidin-4-yl)pyrazin-2-yl)-N-(3-(hydroxymethyl)bicyclo[1.1.1]pentan-1-yl)-4-(methyl-d3)benzenesulfonamide], the IC50 in assay [1], in assay [2] and in assay [3] was not above 100 nM each time.

Regarding `[2H]C([2H])([2H])c1ccc(S(=O)(=O)NC23CCC(C#N)(C2)C3)cc1-c1cnc(N)c(-c2ccn(C)n2)n1` [Example 63, 3-(5-Amino-6-(1-methyl-1H-pyrazol-3-yl)pyrazin-2-yl)-N-(4-cyanobicyclo[2.1.1]hexan-1-yl)-4-(methyl-d3)benzenesulfonamide Trifluoroacetate Salt], the IC50 in assay [1], in assay [2] and in assay [3] was not above 100 nM each time.

`Cc1ccc(S(=O)(=O)NC23CC(C#N)(C2)C3)cc1-c1cnc(N)c(-n2cncn2)n1` [Example 23, 3-(5-Amino-6-(1H-1,2,4-triazol-1-yl)pyrazin-2-yl)-N-(3-cyanobicyclo[1.1.1]pentan-1-yl)-4-methylbenzenesulfonamide Trifluoroacetate Salt]: the IC50 in assay [1] was not above 500 nM; in assay [2], not above 100 nM; in assay [3], not above 100 nM.

On to `Cc1ncc(-c2nc(-c3cc(S(=O)(=O)NC45CCC(O)(CC4)C5)ccc3C)cnc2N)s1` [Example 7, 3-(5-Amino-6-(2-methylthiazol-5-yl)pyrazin-2-yl)-N-(4-hydroxybicyclo[2.2.1]heptan-1-yl)-4-methylbenzenesulfonamide trifluoroacetate salt], for which the IC50 in assay [1], in assay [2] and in assay [3] was not above 100 nM throughout.

In the case of `Cc1ncc(-c2cc(-c3cc(S(=O)(=O)NC45CCC(C#N)(C4)C5)ccc3C)cnc2N)s1` [Example 85, 3-(6-amino-5-(2-methylthiazol-5-yl)pyridin-3-yl)-N-(4-cyanobicyclo[2.1.1]hexan-1-yl)-4-methylbenzenesulfonamide], the IC50 in assay [1], in assay [2] and in assay [3] was not above 100 nM each time.

`[2H]C([2H])([2H])c1ccc(S(=O)(=O)NC23CCC(C#N)(C2)C3)cc1-c1cnc(N)c(-c2cncnc2)n1` [Example 64, 3-(5-Amino-6-(pyrimidin-5-yl)pyrazin-2-yl)-N-(4-cyanobicyclo[2.1.1]hexan-1-yl)-4-(methyl-d3)benzenesulfonamide trifluoroacetate salt]: the IC50 in assay [1] is not above 100 nM.

Regarding `Cc1ccc(S(=O)(=O)NC23CCC(CO)(CC2)OC3)cc1-c1cnc(N)c(-c2ccncc2C#N)n1` [Example 22, 3-(5-Amino-6-(3-cyanopyridin-4-yl)pyrazin-2-yl)-N-(1-(hydroxymethyl)-2-oxabicyclo[2.2.2]octan-4-yl)-4-methylbenzenesulfonamide trifluoroacetate salt], the IC50 is less than 2000 nM in assay [2] and not below 2000 nM in assay [3].
